Literature values as cited in US12268663B2, “Method for treating pruritus” (Pruvyc Pharma, LLC, priority 2020, dated 2025).

How the values were obtained:
histamine H1 receptor = histamine H1 receptor (Homo sapiens, UniProt P35367)
serotonin S2 receptor = serotonin S2 receptor (Homo sapiens, UniProt P28223)
[1] = tested on: connective tissue mast cells

Sequence of serotonin S2 receptor (P28223 whole entry): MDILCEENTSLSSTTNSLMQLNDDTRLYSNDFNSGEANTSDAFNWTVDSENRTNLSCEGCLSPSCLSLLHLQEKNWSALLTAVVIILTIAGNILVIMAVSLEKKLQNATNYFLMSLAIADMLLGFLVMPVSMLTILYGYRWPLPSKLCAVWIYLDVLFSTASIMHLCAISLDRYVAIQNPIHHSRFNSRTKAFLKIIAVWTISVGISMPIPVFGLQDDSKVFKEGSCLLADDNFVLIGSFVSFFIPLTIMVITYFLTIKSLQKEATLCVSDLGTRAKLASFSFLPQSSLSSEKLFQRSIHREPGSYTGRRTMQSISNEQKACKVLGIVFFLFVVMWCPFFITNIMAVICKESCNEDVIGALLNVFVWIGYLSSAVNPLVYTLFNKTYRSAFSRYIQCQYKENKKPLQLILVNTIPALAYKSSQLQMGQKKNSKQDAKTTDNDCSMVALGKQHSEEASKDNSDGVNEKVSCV
Sequence of histamine H1 receptor (P35367 whole entry): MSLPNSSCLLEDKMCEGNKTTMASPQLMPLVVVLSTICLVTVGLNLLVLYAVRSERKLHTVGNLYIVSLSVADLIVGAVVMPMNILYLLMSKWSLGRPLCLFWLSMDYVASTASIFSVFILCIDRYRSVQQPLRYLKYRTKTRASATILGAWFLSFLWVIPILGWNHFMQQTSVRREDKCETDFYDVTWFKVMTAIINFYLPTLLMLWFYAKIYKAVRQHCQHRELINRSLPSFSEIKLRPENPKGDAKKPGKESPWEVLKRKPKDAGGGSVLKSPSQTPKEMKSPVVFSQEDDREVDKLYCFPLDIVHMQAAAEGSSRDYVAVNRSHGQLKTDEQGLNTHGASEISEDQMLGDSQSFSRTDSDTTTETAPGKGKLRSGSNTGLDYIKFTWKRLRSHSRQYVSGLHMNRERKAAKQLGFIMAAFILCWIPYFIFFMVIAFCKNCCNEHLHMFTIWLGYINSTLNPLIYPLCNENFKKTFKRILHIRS

binding to histamine H1 receptor (histamine H1 receptor): bind
binding to serotonin S2 receptor (serotonin S2 receptor): bind
SMILES: CN(C)CC/C=C1/c2ccccc2COc2ccc(CC(=O)O)cc21 [Olopatadine, olopatadine]
allergic mediator release from connective tissue mast cells [1]: inhibits allergic mediator release
